# Results taken from US20100076017A1, “SITAMAQUINE TOSYLATE FOR THE TREATMENT OF LEISHMANIASIS” (priority 2006, published 2010).
# Where a name gives a salt, the structure may show the parent alone.
# Test: hygroscopicity / developability characteristics of the salt form
# Assay type: physicochemical
# Conditions: solid salt form; poor developability characteristics
# Description: This means that reproducibility of standard batches of drug is very difficult, and that the drug would have a very short shelf life in those countries where it is particularly needed.
smiles,measurement,value
"CCN(CC)CCCCCCNc1cc(OC)cc2c(C)ccnc12 [dihydrochloride salt, N,N-diethyl-N′-(6-methoxy-4-methyl-8-quinolinyl)-1,6-hexane diamine]",relative humidity at which the salt is hygroscopic,about 60 % relative humidity
